Measured values from patent publication US20200352907A1, “Use Of Carbamate Compound For Preventing, Alleviating Or Treating Absence Seizure Or Epilepsy Showing Absence Seizure” (SK BIOPHARMACEUTICALS CO., LTD., priority 2017, published 2020).

Columns and labels:
GAERS model rats = conditions: known from literature; cited from earlier work
[1] = system: GAERS (Genetic Absence Epilepsy Rat from Strasbourg) model; test: Efficacy test in GAERS model rats: EEG analysis of spike-and-wave discharges (SWD); type: in vivo; conditions: for cumulated duration of SWD / number of occurrences of SWD: 20-minute intervals 10-90 min after administration, 2-way ANOVA vs vehicle; for cumulated duration of SWD, total effect for 1 hour after administration / number of occurrences of SWD, total effect for 1 hour after administration: 1-way ANOVA vs vehicle, effect similar to valproate 150 and 200 mg/kg
Description: Twelve 5-week-old GAERS model rats were purchased from the Grenoble Institute of Neurosciences, France. After purchase, the rats were bred at a temperature of 21±2° C. under conditions of free access to food and water, and controlled light (illuminated from 8 am to 8 pm), and the condition was maintained for 2 months prior to surgery.
EEG electrodes were implanted into twelve 3-month-old GAERS rats. Stereotaxic implantation was performed under anesthesia with isoflurane (2% concentration in oxygen). The rats were fixed to the stereotaxic frame and surgery was performed while observing body temperature. An ophthalmic gel was used to prevent drying of the cornea. After cutting the hair of the incision site, it was disinfected with povidone, and after incision, four holes were drilled using a drill at the frontal cortical and parietal cortical positions of both hemispheres of the open skull. Monopolar electrodes were placed in these holes and then connected to a female connector fixed to the skull for EEG recording. The incision site was then sutured. After surgery, buprenorphine was injected subcutaneously at a dose of 0.1 mg/kg, and the anesthetic was removed and observed until recovery of consciousness. After that, the rats were kept in a cage for recovery for a week.
One week after the electrode implantation, preliminary EEG measurements of 1 hour were performed on all 12 animals, and 10 animals showing enough signal-to-noise suitable for detecting generation of SWD were selected.
Test compound and positive control drug were prepared immediately before administration. Carbamic acid (R)-1-(2-chlorophenyl)-2-tetrazol-2-yl-ethyl ester prepared in the above preparation example was used as the test compound which was dissolved in 30% (volume/volume) PEG300 (81164-14, Sigma-Aldrich), and the positive control valproate (P4543, Sigma-Aldrich) was dissolved in 0.9% sterile saline (Cooper, France). Both drugs were administered intraperitoneally at a dose of 5 ml/kg. 30% PEG300 was used for vehicle administration as the negative control.
The test was done in a cross-over method, with a minimum interval of 71 hours between each administration for wash-out of the drug. In the first stage test, the following conditions were administered. • Vehicle (30% PEG300) • Valproate 200 mg/kg • Test compound 5 mg/kg • Test compound 10 mg/kg • Test compound 20 mg/kg
In the second stage test, the following conditions were administered. • Valproate 150 mg/kg • Test compound 30 mg/kg
For EEG recording, 10 GAERS rats were placed in a recording chamber and then connected to a wire for EEG recording. After an hour of habituation process, EEG recordings of free-moving animals were performed. As a baseline phase, 20 minutes of recording were performed before drug administration, and 90 minutes of recording were performed after drug administration, using SystemPlus Evolution (Micromed). During the recording, the animals were kept in a quiet wakefulness state.
The generated SWD was analyzed using the recorded EEG data, and all data analysis was performed by blind method. SWD was analyzed for the 20-minute baseline phase and for a total of 80 minutes period from 10 to 90 minutes after drug administration. The 80 minutes were analyzed by dividing them into 20-minute intervals, and the number of occurrences of SWD and the cumulated SWD duration (the cumulated duration of SWD) were analyzed.
Results were expressed as mean value ±standard error, and prism (graphpad) was used for statistical analysis. 2-way ANOVA was used for the number of occurrences of SWD and the cumulated duration of SWD over time. Bonferroni's paired comparison method was used for comparison with the baseline period, comparison with the vehicle-administered negative control and comparison with the valproate-administered positive control. […]

[2] = compared with valproate positive control

| Structure (SMILES) | SWD in the GAERS model rats (GAERS model rats) | effect duration (cumulated duration of SWD) [1, 2] | effect duration (number of occurrences of SWD) [1, 2] | cumulated duration of SWD ([1]; test compound 10 mg/kg i.p.) | number of occurrences of SWD ([1]; test compound 10 mg/kg i.p.) | cumulated duration of SWD, total effect for 1 hour after administration ([1]; test compound 20 mg/kg i.p.) | number of occurrences of SWD, total effect for 1 hour after administration ([1]; test compound 20 mg/kg i.p.) | cumulated duration of SWD ([1]; test compound 20 mg/kg i.p.) | number of occurrences of SWD ([1]; test compound 20 mg/kg i.p.) | cumulated duration of SWD, total effect for 1 hour after administration ([1]; test compound 30 mg/kg i.p.) | number of occurrences of SWD, total effect for 1 hour after administration ([1]; test compound 30 mg/kg i.p.) | cumulated duration of SWD ([1]; test compound 30 mg/kg i.p.) | number of occurrences of SWD ([1]; test compound 30 mg/kg i.p.) |
| --- | --- | --- | --- | --- | --- | --- | --- | --- | --- | --- | --- | --- | --- |
| CCC1(C)CC(=O)NC1=O (stereo not shown) [ethosuximide] | inhibited |  |  |  |  |  |  |  |  |  |  |  |  |
| NC(=O)O[C@@H](Cn1ncnn1)c1ccccc1Cl [test compound, Carbamic acid (R)-1-(2-chlorophenyl)-2-tetrazol-2-yl-ethyl ester] |  | longer duration than valproate | longer duration than valproate | significant reduction effect in the 30-50 min and 50-70 min intervals after administration | significance in the 30 to 50 min interval after administration | significantly reduced the cumulated duration of SWD compared to the vehicle administration group | significantly reduced the number of occurrences of SWD compared to the vehicle administration group | significant reduction effect in the 30-90 min interval after administration | significance in the 30 to 90 min interval after administration | significantly reduced the cumulated duration of SWD compared to the vehicle administration group | significantly reduced the number of occurrences of SWD compared to the vehicle administration group | significant reduction effect in the entire period after administration | significance in the entire period after administration |
